# From patent publication US7202280B2, “Methods for the treatment and prevention of pancreatitis and for induction of liver regeneration” (priority 2002, dated 2007)
# What was measured:
# PAO = experiment: Hepatic PAO activity in SSAT transgenic rats after polyamine analogues without or with MDL72527; type: in vivo, rat; settings: MDL72527 50 mg/kg i.p. twice, alone or in combination with the analogues
# Experimental: FIGS. 9A–9B. Effect of polyamine analogues without or with MDL72527 on hepatic SSAT (FIG. 9A) and PAO (FIG. 9B) activities in SSAT transgenic rats. The rats were treated with the drugs as described in the legend for FIGS. 8A–8D. There were three to four animals in each group.
# The production of transgenic Wistar rats (UKUR30) and mice (UKU181) harboring metallothionein-SSAT fusion gene (Suppola, S., Pietilä, M., Parkkinen, J. J., Korhonen, V. P., Alhonen, L., Halmekytö, M., Porter, C. W., and Jänne, J. (1999) Biochem. J. 338, 311–316) has been described earlier (Alhonen, L., Parkkinen, J. J., Keinänen, T., Sinervirta, R., Herzig, K. H., and Jänne, J. (2000) Proc. Natl. Acad. Sci. U.S.A. 97, 8290–8295; Lukkarinen, J., Gröhn, O., Sinervirta, R., Järvinen, A., Kauppinen, R. A., Jänne, J., and Alhonen, L. (1997) Stroke 28, 639–645). Partial hepatectomy was carried out according to the original method of Higgins and Anderson (Higgins, G. H., and Anderson, R. M. (1931) Arch. Pathol. 12, 186–202). […]
# PAO activity was measured to verify the effectiveness of MDL72527 treatment and to determine whether the analogues have any effect on its activity. […]
# SSAT transgenic rats = experiment: Stability of the analogues in the liver of SSAT transgenic rats without or with MDL72527 (hepatic polyamine pools); type: in vivo, rat; settings: MDL72527 50 mg/kg i.p. twice
# Experimental: FIGS. 8A-8D. Hepatic polyamine pools in SSAT transgenic rats treated with methylated polyamine analogues without or with MDL72527. The rats were injected twice with MDL72527 (50 mg/kg i.p.) at 16-h interval. The polyamine analogues (25 mg/kg i.p.) were injected 2 and 8 h later. The animals were sacrificed 24 h after the last MDL72527 injection. There were three to four animals in each group. Put, putrescine; […] Spd, spermidine; Me-Spd, α-methylspermidine; […] The production of transgenic Wistar rats (UKUR30) and mice (UKU181) harboring metallothionein-SSAT fusion gene (Suppola, […]., Porter, C. W., and Jänne, J. (1999) Biochem. […] (2000) Proc. Natl. Acad. Sci. U.S.A. 97, 8290-8295; Lukkarinen, […]., and Alhonen, L. (1997) Stroke 28, 639-645). Partial hepatectomy was carried out according to the original method of Higgins and Anderson (Higgins, G. H., and Anderson, R. M. (1931) Arch. Pathol. 12, 186-202). Treatments before partial hepatectomy and the determination of DNA synthesis were carried out as in ([…]., Suppola, […]., and […]. Biol. Chem. 277, 39867-39872). Transgenic 10 weeks old male rats were injected twice with MDL72527 (50 mg/kg i.p.) at 16-h interval to inactivate PAO according to (Bolkenius, F. N., Bey, P., and Seiler, N. (1985) Biochim. Biophys. […] An aliquot of the homogenates was used for the polyamine assays. The homogenates were centrifuged (at 13 000×g, for 30 min, at 4° C.) and the supernatants were used for the enzyme activity assays. The Institutional Animal Care and Use Committee of the University of Kuopio and by the Provincial Government approved animal experiments. […] Merck (Darmstadt, Germany).
smiles,measurement,setting,value
"C=C=CCNCCCCNCC=C=C [MDL72527, reference compound]",hepatic PAO activity,PAO,virtually completely inhibited PAO activity
same,hepatic putrescine and N^1-acetylspermidine pools,SSAT transgenic rats,greatly reduced putrescine content and increased the pool of N^1-acetylspermidine
